The pIC50 is the IC50 on a negative log10 scale, so that one unit is a factor of ten.

pIC50: −log10 of the molar value.

The target in the assay is T1, human PKR1 receptors (Homo sapiens, UniProt Q8TCW9).
T1 construct: expressed in transfected cells; host or cells: RBL2H3 cells (rat basophilic leukaemia line) expressing human PKR1
T1 sequence (Q8TCW9 whole entry): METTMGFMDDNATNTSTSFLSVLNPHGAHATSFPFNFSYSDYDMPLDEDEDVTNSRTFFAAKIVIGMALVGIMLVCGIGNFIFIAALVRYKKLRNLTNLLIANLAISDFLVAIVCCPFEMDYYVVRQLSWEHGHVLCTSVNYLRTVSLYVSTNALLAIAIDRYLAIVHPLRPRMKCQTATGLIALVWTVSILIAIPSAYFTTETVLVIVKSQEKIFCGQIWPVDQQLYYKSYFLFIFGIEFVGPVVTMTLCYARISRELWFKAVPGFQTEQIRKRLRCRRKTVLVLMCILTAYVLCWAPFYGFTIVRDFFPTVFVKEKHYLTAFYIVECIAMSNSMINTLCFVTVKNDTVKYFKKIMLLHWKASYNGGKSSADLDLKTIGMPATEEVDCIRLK
Kind of assay: PKR1 antagonist assay: block of PK1-mediated intracellular calcium release (FLIPR Tetra, Calcium 5 dye). The class given is cell-based. Conditions: RBL2H3 cells expressing human PKR1; 10 min pre-incubation, stimulation with PK1 at EC80; calcium fluorescence. How it is done:
Prokineticin receptor 1 (PKR1) antagonists may be functionally assessed by measurement of change in intracellular calcium levels induced by Gq mediated increase in inositol triphosphate (IP3) levels. The ability of a compound to block the intracellular release of calcium mediated by PK1 in RBL2H3 cells expressing human PKR1 receptors is determined as a measure of the compound's antagonist activity in vitro.
Approximately 10,000 cells per assay well are seeded in normal culture medium in a 384 well plate (Corning). Twenty-four hours after seeding, the cells are loaded with a calcium sensitive fluorescent dye by replacing the culture medium with assay buffer (1× Hanks buffered saline, 25 mM HEPES, 0.1% w/v fatty acid free BSA (bovine serum albumin), pH 7.4) containing 1 mM probenecid and 1× Calcium 5 Reagent (Molecular Devices). Cells are incubated at 37° C. for 1 hour to allow for dye uptake.
To test for antagonist activity, test compounds at a final concentration range between 0.32 nM-10 μM (diluted in assay buffer) are added to the assay wells and allowed to incubate for 10 minutes prior to stimulation with PK1. After incubation with test compounds the assay plate is placed in a FLIPR Tetra (Molecular Devices) and PK1 (diluted in assay buffer) is added at the determined EC80 concentration (final). Ligand-dependent changes in intracellular calcium levels are determined by measuring changes in fluorescence of the dye at […] following excitation at 485 nm.
Consider `Cc1nn(C)c(C)c1S(=O)(=O)N1CCC(O)(Cc2ccc(Cl)c(Cl)c2)CC1` [Example 69, 4-(3,4-Dichlorobenzyl)-1-((1,3,5-trimethyl-1H-pyrazol-4-yl)sulfonyl)piperidin-4-ol], for which the negative-log IC50 (pIC50) was 5.19.

Take `Cc1nn(C)c(C)c1S(=O)(=O)N1CCC(Oc2ncc(Cl)cc2F)CC1` [Example 77, 5-Chloro-3-fluoro-2-((1-((1,3,5-trimethyl-1H-pyrazol-4-yl)sulfonyl)piperidin-4-yl)oxy)pyridine]: the negative-log IC50 (pIC50) is 5.50.

Take `COc1ccc(OC2CCN(S(=O)(=O)c3c(C)nn(C)c3C)CC2)cc1F` [Example 43, 4-(3-Fluoro-4-methoxyphenoxy)-1-(trimethyl-1H-pyrazole-4-sulfonyl)piperidine]: the pIC50 is 5.20.

`Cc1nn(C)c(C)c1S(=O)(=O)N1CCC(Oc2ccc(Cl)cc2Cl)CC1` [Example 13, 4-(2,4-Dichlorophenoxy)-1-[(1,3,5-trimethyl-1H-pyrazol-4-yl)sulfonyl]piperidine]: the pIC50 was 6.10.

Regarding `Cc1n[nH]c(C)c1S(=O)(=O)N1CCC(Oc2ccc(OC(F)(F)F)cc2)CC1` [Example 32, 1-[(3,5-Dimethyl-1H-pyrazol-4-yl)sulfonyl]-4-[4-(trifluoromethoxy)phenoxy]piperidine], the pIC50 was 5.47.

For `COc1cc(Cl)ccc1CC1(O)CCN(S(=O)(=O)c2c(C)n[nH]c2C)CC1` [Example 89, 4-(4-Chloro-2-methoxybenzyl)-1-((3,5-dimethyl-1H-pyrazol-4-yl)sulfonyl)piperidin-4-ol], the pIC50 was 6.39.

For `Cc1nn(C)c(C)c1S(=O)(=O)N1CCC(O)(Cc2ccc(Cl)cc2Cl)CC1` [Example 59, 4-(2,4-Dichlorobenzyl)-1-((1,3,5-trimethyl-1H-pyrazol-4-yl)sulfonyl)piperidin-4-ol], the pIC50 is 5.62.

For `Cc1cnn(C)c1S(=O)(=O)N1CCC(Oc2ccc(Cl)cc2)CC1` [Example 37, 4-(4-Chlorophenoxy)-1-(1,4-dimethyl-1H-pyrazole-5-sulfonyl)piperidine], the negative logarithm of the IC50 (pIC50) is 5.13.

In the case of `COCC1(Cc2ccc(Cl)cc2)CCN(S(=O)(=O)c2c(C)nn(C)c2C)CC1` [Example 60, 4-(4-Chlorobenzyl)-4-(methoxymethyl)-1-((1,3,5-trimethyl-1H-pyrazol-4-yl)sulfonyl)piperidine], the pIC50 is 6.05.

For `COc1c(F)cc(OC2CCN(S(=O)(=O)c3c(C)nn(C)c3C)CC2)cc1F` [Example 44, 4-(3,5-Difluoro-4-methoxyphenoxy)-1-(trimethyl-1H-pyrazole-4-sulfonyl)piperidine], the negative logarithm of the IC50 (pIC50) is 5.29.

Turning to `COc1cccc(OC2CCN(S(=O)(=O)c3c(C)nn(C)c3C)CC2)c1` [Example 17, 4-(3-Methoxyphenoxy)-1-[(1,3,5-trimethyl-1H-pyrazol-4-yl)sulfonyl]piperidine], the negative-log IC50 (pIC50) was 5.44.

As for `Cc1n[nH]c(C)c1S(=O)(=O)N1CCC(Oc2ccc(Cl)cc2)CC1` [Example 8, 4-(4-Chlorophenoxy)-1-[(3,5-dimethyl-1H-pyrazol-4-yl)sulfonyl]piperidine], the negative-log IC50 (pIC50) was 5.84.

As to `Cc1n[nH]c(C)c1S(=O)(=O)N1CCC(O)(Cc2ccc(Cl)c(Cl)c2)CC1` [Example 70, 4-(3,4-Dichlorobenzyl)-1-((3,5-dimethyl-1H-pyrazol-4-yl)sulfonyl)piperidin-4-ol], the pIC50 was 5.06.

As to `COc1cc(Cl)ccc1OC1CCN(S(=O)(=O)c2c(C)n[nH]c2C)CC1` [Example 73, 4-(4-Chloro-2-methoxyphenoxy)-1-((3,5-dimethyl-1H-pyrazol-4-yl)sulfonyl)piperidine], the negative logarithm of the IC50 (pIC50) is 6.70.

Consider `Cc1nn(C)c(C)c1S(=O)(=O)N1CCC(Oc2cccc(Cl)c2)CC1` [Example 6, 4-(3-Chlorophenoxy)-1-[(1,3,5-trimethyl-1H-pyrazol-4-yl)sulfonyl]piperidine], for which the pIC50 was 5.66.

For `Cc1nn(C)c(C)c1S(=O)(=O)N1CCC(Oc2ccc(Cl)c(Cl)c2)CC1` [Example 1, 4-(3,4-Dichlorophenoxy)-1-((1,3,5-trimethyl-1H-pyrazol-4-yl)sulfonyl)piperidine], the negative-log IC50 (pIC50) was 5.85.

`Cc1nn(C)c(C)c1S(=O)(=O)N1CCC(Cc2ccc(Cl)cc2F)CC1` [Example 83, 4-(4-Chloro-2-fluorobenzyl)-1-((1,3,5-trimethyl-1H-pyrazol-4-yl)sulfonyl)piperidine]: the pIC50 is 6.14.

As for `CCc1n[nH]c(CC)c1S(=O)(=O)N1CCC(Cc2ccc(Cl)cc2)CC1` [Example 66, 4-(4-Chlorobenzyl)-1-((3,5-diethyl-1H-pyrazol-4-yl)sulfonyl)piperidine], the negative-log IC50 (pIC50) was 6.00.

Regarding `Cc1n[nH]c(C)c1S(=O)(=O)N1CCC(Oc2ccc(Cl)cc2C#N)CC1` [Example 34, 5-Chloro-2-{[1-(3,5-dimethyl-1H-pyrazole-4-sulfonyl)piperidin-4-yl]oxy}benzonitrile], the pIC50 is 6.62.

As to `COc1cc(Cl)ccc1CC1CCN(S(=O)(=O)c2c(C)n[nH]c2C)CC1` [Example 78, 4-(4-Chloro-2-methoxybenzyl)-1-((3,5-dimethyl-1H-pyrazol-4-yl)sulfonyl)piperidine], the pIC50 was 7.15.

Regarding `Cc1c(S(=O)(=O)N2CCC(Oc3ccc(Cl)cc3)CC2)c(C(F)(F)F)nn1C` [Example 16, 4-(4-Chlorophenoxy)-1-{[1,5-dimethyl-3-(trifluoromethyl)-1H-pyrazol-4-yl]sulfonyl}piperidine], the negative-log IC50 (pIC50) was 5.34.

On to `Cc1nn(C)c(C)c1S(=O)(=O)N1CCC(Oc2ccccc2)CC1` [Example 19, 4-Phenoxy-1-[(1,3,5-trimethyl-1H-pyrazol-4-yl)sulfonyl]piperidine], for which the pIC50 is 5.25.

As for `Cc1nn(C)c(C)c1S(=O)(=O)N1CCC(Nc2ccc(Cl)c(Cl)c2)CC1` [Example 52, N-(3,4-Dichlorophenyl)-1-((1,3,5-trimethyl-1H-pyrazol-4-yl)sulfonyl)piperidin-4-amine], the negative-log IC50 (pIC50) is 5.57.

Consider `COC(c1ccc(Cl)cc1)C1CCN(S(=O)(=O)c2c(C)nn(C)c2C)CC1` (stereo not drawn) [Example 99, 4-((4-Chlorophenyl)(methoxy)methyl)-1-((1,3,5-trimethyl-1H-pyrazol-4-yl)sulfonyl)piperidine], for which the negative-log IC50 (pIC50) was 7.22.

For the compound `Cc1nn(C)c(C)c1S(=O)(=O)N1CCC(Oc2ccc(Br)cc2F)CC1` [Example 14, 4-(4-Bromo-2-fluorophenoxy)-1-[(1,3,5-trimethyl-1H-pyrazol-4-yl)sulfonyl]piperidine], the pIC50 was 6.33.

Regarding `COc1ccc(OC2CCN(S(=O)(=O)c3c(C)nn(C)c3C)CC2)cc1` [Example 18, 4-(4-Methoxyphenoxy)-1-[(1,3,5-trimethyl-1H-pyrazol-4-yl)sulfonyl]piperidine], the negative logarithm of the IC50 (pIC50) was 5.15.

For `COc1cc(Cl)ccc1OC1CCN(S(=O)(=O)c2c(C)nn(C)c2C)CC1` [Example 74, 4-(4-Chloro-2-methoxyphenoxy)-1-((1,3,5-trimethyl-1H-pyrazol-4-yl)sulfonyl)piperidine], the pIC50 is 6.77.

As for `Cc1nn(C)c(C)c1S(=O)(=O)N1CCC(Cc2ccc(Cl)cc2)CC1` [Example 55, 4-(4-Chlorobenzyl)-1-((1,3,5-trimethyl-1H-pyrazol-4-yl)sulfonyl)piperidine], the pIC50 was 6.28.

Turning to `Cc1nn(C)c(C)c1S(=O)(=O)N1CCC(N(C)c2ccc(Cl)c(Cl)c2)CC1` [Example 54], the pIC50 was 5.28.

`Cc1nn(C)c(Cl)c1S(=O)(=O)N1CCC(Oc2ccc(Cl)cc2Cl)CC1` [Example 25, 1-[(5-Chloro-1,3-dimethyl-1H-pyrazol-4-yl)sulfonyl]-4-(2,4-dichlorophenoxy)piperidine]: the negative logarithm of the IC50 (pIC50) is 5.89.

Regarding `Cc1n[nH]c(C)c1S(=O)(=O)N1CCC(C(CO)c2ccc(Cl)cc2)CC1` (stereo not drawn) [Example 100, 2-(4-Chlorophenyl)-2-(1-((3,5-dimethyl-1H-pyrazol-4-yl)sulfonyl)piperidin-4-yl)ethanol], the pIC50 was 5.03.

Regarding `COc1cc(Cl)cnc1OC1CCN(S(=O)(=O)c2c(C)nn(C)c2C)CC1` [Example 84, 5-Chloro-3-methoxy-2-((1-((1,3,5-trimethyl-1H-pyrazol-4-yl)sulfonyl)piperidin-4-yl)oxy)pyridine], the pIC50 is 6.14.

For `CCOC(c1ccc(Cl)cc1)C1CCN(S(=O)(=O)c2c(C)n[nH]c2C)CC1` (stereo not drawn) [Example 104, 4-((4-Chlorophenyl)(ethoxy)methyl)-1-((3,5-dimethyl-1H-pyrazol-4-yl)sulfonyl)piperidine], the negative-log IC50 (pIC50) was 6.14.

As for `Cc1nn(C)c(C)c1S(=O)(=O)N1CCC(Oc2ccc(C(F)(F)F)cc2)CC1` [Example 12, 4-[4-(Trifluoromethyl)phenoxy]-1-[(1,3,5-trimethyl-1H-pyrazol-4-yl)sulfonyl]piperidine], the pIC50 was 5.33.

For `Cc1nn(C)c(C)c1S(=O)(=O)N1CCC(Oc2ccc(Cl)cc2C#N)CC1` [Example 31, 5-Chloro-2-{[1-(trimethyl-1H-pyrazole-4-sulfonyl)piperidin-4-yl]oxy}benzonitrile], the pIC50 was 6.51.

`COc1c(F)cc(OC2CCN(S(=O)(=O)c3c(C)n[nH]c3C)CC2)cc1F` [Example 42, 4-(3,5-Difluoro-4-methoxyphenoxy)-1-(3,5-dimethyl-1H-pyrazole-4-sulfonyl)piperidine]: the pIC50 is 5.23.

Values taken from patent US20130324576A1, “THERAPEUTIC COMPOUNDS” (Takeda Pharmaceutical Company Limited, priority 2012, published 2013).
